In patent US8952024B2, “Herbicidal pyrimidone derivatives” (E I du Pont de Nemours and Company, priority 2009, dated 2015):

Tests used:
Assay in all cases: Test B pre-/postemergence plant response
Format in all cases: in vivo
[1] = tested on: downy bromegrass (Bromus tectorum)
Method in brief: (§1)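 Visually scored on a 0 to 100 scale after 13 to 15 days in greenhouse versus controls. Treatments were preemergence on seeded loam/sand soil and postemergence on 1- to 4-leaf plants.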

[2] = tested on: woolly cupgrass (Eriochloa villosa)
Method in brief: as §1

soybean (Glycine max) = tested on: soybean (Glycine max)
Method in brief: as §1

[3] = tested on: ragweed (common ragweed, Ambrosia elatior)
Method in brief: as §1

[4] = tested on: blackgrass (Alopecurus myosuroides)
Method in brief: as §1

[5] = tested on: giant foxtail (Setaria faberii)
Method in brief: as §1

[6] = tested on: pigweed (Amaranthus retroflexus)
Method in brief: as §1

[7] = tested on: johnsongrass (Sorghum halepense)
Method in brief: as §1

[8] = tested on: velvetleaf (Abutilon theophrasti)
Method in brief: as §1

corn (Zea mays) = tested on: corn (Zea mays)
Method in brief: as §1

[9] = tested on: Surinam grass (Brachiaria decumbens)
Method in brief: as §1

[10] = tested on: Italian ryegrass (Lolium multiflorum)
Method in brief: as §1

kochia (Kochia scoparia) = tested on: kochia (Kochia scoparia)
Method in brief: as §1

[11] = 31 g ai/ha, postemergence, scale 0 to 100, 0 is no effect, 100 is complete control
[12] = 62 g ai/ha, postemergence, 0 is no effect, 100 is complete control, 13 to 15 days
[13] = Postemergence, 125 g ai/ha, visual rating after 13 to 15 days, scale 0 (no effect) to 100 (complete control)
[14] = Postemergence, 250 g ai/ha, scale 0 to 100 (0 no effect, 100 complete control)

Cc1ccccc1-c1ncc(C(=O)C2=C(O)CCCC2=O)c(=O)n1-c1ccccc1 [Compound 82]
75: Plant response rating, Cupgrass, Woolly [2, 14] | Plant response rating, Soybean (soybean (Glycine max); [11]) | Plant response rating, Ragweed [3, 11] | Plant response rating, Foxtail, Giant [5, 11] | Plant response rating, Pigweed [6, 11] | Plant response rating, Surinam Grass [9, 13] | Plant response rating, Kochia (kochia (Kochia scoparia); [14])
80: Ragweed plant response rating (0 to 100 scale) [3, 12] | Foxtail, Giant plant response rating (0 to 100 scale) [5, 12] | Johnsongrass plant response rating (0 to 100 scale) [7, 12] | Plant response rating, Johnsongrass [7, 13] | Plant response rating, Surinam Grass [9, 14]
5: Plant response rating, Bromegrass, Downy [1, 13] | Plant response rating, Blackgrass [4, 13] | Corn plant response rating (0 to 100 scale) (corn (Zea mays); [12]) | Plant response rating, Corn (corn (Zea mays); [13]) | Plant response rating, Ryegrass, Italian [10, 13]
0: Plant response rating, Bromegrass, Downy [1, 11] | Bromegrass, Downy plant response rating (0 to 100 scale) [1, 12] | Plant response rating, Blackgrass [4, 11] | Blackgrass plant response rating (0 to 100 scale) [4, 12] | Plant response rating, Corn (corn (Zea mays); [11]) | Plant response rating, Ryegrass, Italian [10, 11] | Ryegrass, Italian plant response rating (0 to 100 scale) [10, 12]
65: Plant response rating, Cupgrass, Woolly [2, 13] | Plant response rating, Johnsongrass [7, 11] | Plant response rating, Surinam Grass [9, 11] | Surinam Grass plant response rating (0 to 100 scale) [9, 12] | Plant response rating, Kochia (kochia (Kochia scoparia); [13])
95: Plant response rating, Soybean (soybean (Glycine max); [13]) | Plant response rating, Ragweed [3, 13] | Plant response rating, Ragweed [3, 14] | Plant response rating, Foxtail, Giant [5, 13] | Plant response rating, Foxtail, Giant [5, 14] | Plant response rating, Johnsongrass [7, 14] | Plant response rating, Velvetleaf [8, 14]
55: Plant response rating, Cupgrass, Woolly [2, 11] | Cupgrass, Woolly plant response rating (0 to 100 scale) [2, 12]
90: Soybean plant response rating (0 to 100 scale) (soybean (Glycine max); [12]) | Velvetleaf plant response rating (0 to 100 scale) [8, 12] | Plant response rating, Velvetleaf [8, 13]
30: Plant response rating, Bromegrass, Downy [1, 14]
15: Plant response rating, Blackgrass [4, 14] | Plant response rating, Corn (corn (Zea mays); [14])
98: Plant response rating, Soybean (soybean (Glycine max); [14]) | Pigweed plant response rating (0 to 100 scale) [6, 12]
100: Plant response rating, Pigweed [6, 13] | Plant response rating, Pigweed [6, 14]
60: Kochia plant response rating (0 to 100 scale) (kochia (Kochia scoparia); [12])
10: Plant response rating, Ryegrass, Italian [10, 14] | Plant response rating, Kochia (kochia (Kochia scoparia); [11])
85: Plant response rating, Velvetleaf [8, 11]
